Measured values: ChEMBL document CHEMBL5104111, “Boron-Containing heterocycles as promising pharmacological agents” (Bioorg Med Chem, 2022)
≈ marks a conversion by molar mass, not a printed value.

Tests used:
Aspergillus niger [1] = assay: Antifungal activity against Aspergillus niger ATCC 20408 assessed as fungal growth inhibition by plate colony counting method; type: functional
[2] = Inhibition of Escherichia coli LeuRS using Escherichia coli tRNA as substrate incubated for 20 mins in presence of 14C-leucine/ATP
Escherichia coli [3] = assay: Antibacterial activity against Escherichia coli ATCC 25922 assessed as bacterial growth inhibition; type: functional
Candida albicans = assay: Antifungal activity against Candida albicans ATCC 14053 assessed as fungal growth inhibition by broth microdilution method; type: functional
Vanrija humicola = assay: Antifungal activity against Cryptococcus humicola ATCC 9949 assessed as fungal growth inhibition by broth microdilution method; type: functional
Aspergillus niger [4] = assay: Antifungal activity against Aspergillus niger ATCC 16404 assessed as fungal growth inhibition by broth microdilution method; type: functional
Fusarium oxysporum = assay: Antifungal activity against Fusarium oxysporum VKM F-140 assessed as fungal growth inhibition by broth microdilution method; type: functional
THP-1 = assay: Antiinflammatory activity against human THP-1 cells assessed as inhibition of LPS-stimulated IL-1beta release measured after 1 hr by ELISA; type: functional, cell-based; conditions: THP-1, 1 h
Streptococcus mutans [5] = assay: Antibacterial activity against Streptococcus mutans assessed as bacterial growth inhibition; type: functional
[6] = tested on: Mycobacterium tuberculosis; assay: Antibacterial activity against Mycobacterium tuberculosis assessed as bacterial growth inhibition; type: functional
[7] = tested on: Mycolicibacterium smegmatis; assay: Antibacterial activity against Mycobacterium smegmatis assessed as bacterial growth inhibition; type: functional
A549 = assay: Cytotoxicity against human A549 cells assessed as cell growth inhibition; type: functional
Staphylococcus aureus = assay: Antibacterial activity against healthcare-associated Methicillin-resistant Staphylococcus aureus assessed as bacterial growth inhibition; type: functional
[8] = Lipophilicity, log P of the compound; type: physicochemical; conditions: octanol/water
Prototheca zopfii = assay: Antimicrobial activity against Prototheca zopfii assessed as microbial growth inhibition by CLSI protocol based assay; type: functional
HepG2 = assay: Cytotoxicity against human HepG2 cells assessed as cell growth inhibition incubated for 72 hrs by Cell Titer Glo assay; type: functional, cell-based; conditions: HepG2, 72 h
[9] = tested on: Mycobacterium tuberculosis; assay: Antibacterial activity against Mycobacterium tuberculosis H37Rv ATCC 25618 assessed as bacterial growth inhibition incubated for 5 days by fluorescence based assay; type: functional, organism-based; conditions: H37Rv ATCC 25618, 120 h
[10] = Protein binding in human serum; type: ADME, cell-free; conditions: read-out: PB (converted)
[11] = Protein binding in mouse plasma; type: ADME, cell-free; conditions: read-out: PB (converted)
Salmonella typhimurium = assay: Antibacterial activity against Salmonella typhimurium Delta-119 assessed as bacterial growth inhibition incubated for 16 hrs by broth dilution method; type: functional, Salmonella enterica subsp. enterica serovar Typhimurium; conditions: Salmonella enterica
Klebsiella pneumoniae = assay: Antibacterial activity against Klebsiella pneumoniae Delta-217 assessed as bacterial growth inhibition incubated for 16 hrs by broth dilution method; type: functional
L5178Y = assay: Anticancer activity against mouse L5178Y cells assessed as cell growth inhibition incubated for 24 hrs by MTT assay; type: functional, cell-based
[12] = Cytotoxicity against HEK293T cells assessed as reduction in cell viability incubated for 48 hrs by MTT assay; type: toxicity, cell-based, HEK-293T; conditions: human
[13] = Binding affinity to Cryptococcus neoformans beta-carbonic anhydrase assessed as inhibition constant preincubated for 15 mins by bromothymol blue staining based assay
[14] = Binding affinity to Candida glabrata beta-carbonic anhydrase assessed as inhibition constant preincubated for 15 mins by bromothymol blue staining based assay; design: species or system Nakaseomyces glabratus
Proteus mirabilis = assay: Antibacterial activity against Proteus mirabilis Delta-89 assessed as bacterial growth inhibition incubated for 16 hrs by broth dilution method; type: functional
[15] = Cmax in rat at 25 mg/kg, po; type: ADME, organism-based; design: dose 25 mg/kg, route po; conditions: in vivo
[16] = AUC (0 to 24 hrs) in rat at 25 mg/kg, po; type: ADME, organism-based; design: time < 24 hr, dose 25 mg/kg, route po; conditions: in vivo
Bacillus cereus = assay: Antibacterial activity against Bacillus cereus assessed as bacterial growth inhibition at 100 ug incubated for 48 hrs by disk diffusion method; type: functional; conditions: read-out: IZ
Escherichia coli [17] = assay: Antibacterial activity against Escherichia coli assessed as bacterial growth inhibition; type: functional
Aspergillus niger [18] = assay: Antifungal activity against Aspergillus niger assessed as fungal growth inhibition at 50 ug incubated for 96 hrs by disk diffusion method; type: functional; conditions: read-out: IZ
Verticillium dahliae = assay: Antifungal activity against Verticillium dahliae assessed as fungal growth inhibition at 50 ug incubated for 96 hrs by disk diffusion method; type: functional; conditions: read-out: IZ
[19] = tested on: Mycobacterium tuberculosis; assay: Antibacterial activity against Mycobacterium tuberculosis H37Rv infected in C57BL/6J mouse model of acute TB infection administered once daily for 8 days and measured after 24 hrs; type: functional; conditions: 216 h, time 9 day
[20] = Dose normalized AUC (0 to infinity) in C57BL/6 mouse at 5.5 mg/kg, iv qd measured for 0.083 to 24 hrs post dose by LC-MS/MS analysis; type: ADME, organism-based; conditions: in vivo, time 0.083-24 hrs
[21] = Half life in C57BL/6 mouse at 30 mg/kg, po qd via gavage measured for 0.25 to 24 hrs post dose by LC-MS/MS analysis; type: ADME, organism-based; conditions: in vivo, time 0.25-24 hrs
[22] = AUC (0 to 24 hrs) in C57BL/6 mouse at 30 mg/kg, po qd via gavage measured for 0.25 to 24 hrs post dose by LC-MS/MS analysis; type: ADME, organism-based; design: dose 30 mg/kg, time 0.25-24 hrs, route po; conditions: in vivo
[23] = Dose normalized AUC (0 to 24 hrs) in C57BL/6 mouse at 30 mg/kg, po qd via gavage measured for 0.25 to 24 hrs post dose by LC-MS/MS analysis; type: ADME, organism-based; conditions: in vivo, time 0.25-24 hrs
Streptococcus mutans [24] = assay: Antibiofilm activity against Streptococcus mutans ATCC 27351 assessed as bacterial viability at 0.2 uM by SYTO/PI staining based inverted microscopy relative to control; type: functional

`Clc1cccc(B2NC(c3ccccc3)=NO2)c1` showed an MIC (Aspergillus niger [1]) of 0.09 µM (≈ 0.0231 µg/mL).

`Cl.NC[C@H]1OB(O)c2c(OCCCO)cccc21` showed an IC50 [2] of 310 nM and an MIC (Escherichia coli [3]) of 1 µg/mL.

`C[C@@H]1[C@H](O)[C@@H](C)/C=C/C=C/C=C/C=C/C=C/C=C/C=C/[C@H](O[C@@H]2O[C@H](C)[C@@H](O)[C@H](NS(=O)(=O)c3ccc4c(c3)OB(O)C4)[C@@H]2O)C[C@@H]2O[C@](O)(C[C@@H](O)C[C@@H](O)[C@H](O)CC[C@@H](O)C[C@@H](O)CC(=O)O[C@H]1C)C[C@H](O)[C@H]2C(=O)O` gave an MIC (Candida albicans) of 0.25 µg/mL (≈ 0.223 µM), an MIC (Vanrija humicola) of 0.25 µg/mL (≈ 0.223 µM) and an MIC (Aspergillus niger [4]) of 0.25 µg/mL (≈ 0.223 µM). It also gave an MIC (Fusarium oxysporum) of 0.25 µg/mL (≈ 0.223 µM).

For `CC(=O)C1=C(C(Cl)(Cl)Cl)N[B-](c2ccccc2)(c2ccccc2)[O+]=C1C`, the IC50 (THP-1) was 574 nM.

In the case of `CCCCB1OC(c2ccccc2)C(C)N1C` (stereo unspecified), the MIC (Streptococcus mutans [5]) is reported as 500 µM (≈ 116 µg/mL).

`O=[N+]([O-])c1cccc(B2NC(c3ccccc3)=NO2)c1` gave an MIC (Aspergillus niger [1]) of 0.09 µM (≈ 0.024 µg/mL).

In the case of `Cc1ccc2c(c1-c1ccccc1C(N)=O)B(O)OC2`, the IC90 [6] is reported as 1800 nM.

In the case of `O=C(NCCNC(=O)c1ccc2c(c1)B(O)OC2)c1ccc2c(c1)B(O)OC2`, the MIC [7] is reported as 0.78 µM (≈ 0.296 µg/mL) and the MIC99 (A549) is reported as over 5 µM.

Compound `OCc1ccc2c(c1)C=CB(c1ccc(O)c(C34CC5CC(CC(C5)C3)C4)c1)N2` has an MIC (Staphylococcus aureus) of 64 µM (≈ 24.7 µg/mL) and a logP [8] of 0.12.

In the case of `O=[N+]([O-])c1ccc([N+]2=C(c3ccccc3)C=C(C(Cl)(Cl)Cl)O[B-]2(F)F)cc1`, the MIC (Prototheca zopfii) is reported as 0.3 µg/mL (≈ 0.692 µM).

For `CCS(=O)(=O)N1N=Cc2ccc(Oc3ccc(C(F)(F)F)cc3/C=N/O)cc2B1O`, the IC50 (HepG2) was over 100000 nM, the IC50 [9] was 90 nM and the fraction unbound [10] was 0.12. For the same compound, the fraction unbound [11] was 0.015.

With `CN1C(=O)C2(Cc3ccccc3B(O)O2)c2ccccc21` (stereo unspecified) the logP [8] was 3.52.

`CCCS(=O)(=O)N1N=Cc2sc(C)cc2B1O` showed an MIC (Salmonella typhimurium) of 0.19 µg/mL (≈ 0.698 µM) and an MIC (Klebsiella pneumoniae) of 0.31 µg/mL (≈ 1.14 µM).

`O=C1C[NH2+][B-](c2ccccc2)(c2ccccc2)O1` gave an IC50 (L5178Y) of 22500 nM.

Compound `OB1c2sccc2C=NN1Cc1ccccc1` has a CC50 at 48 h [12] of over 100000 nM.

`Cc1ccc(S(=O)(=O)N2N=Cc3cc(C)oc3B2O)cc1` gave an MIC (Salmonella typhimurium) of 3.12 µg/mL (≈ 10.3 µM) and an MIC (Klebsiella pneumoniae) of 1.56 µg/mL (≈ 5.13 µM).

Work on `O=C(Nc1ccc(F)cc1)Nc1ccc2c(c1)B(O)OC2` yielded a Ki [13] of 78 nM and a Ki [14] of 75 nM.

Compound `Cc1ccc2c(c1)C=NN(S(=O)(=O)c1ccc(N)cc1Cl)B2O` has an MIC (Klebsiella pneumoniae) of 0.39 µg/mL (≈ 1.12 µM) and an MIC (Proteus mirabilis) of 0.78 µg/mL (≈ 2.23 µM).

Compound `O=C(NCCOCCOCCNC(=O)c1ccc2c(c1)B(O)OC2)c1ccc2c(c1)COB2O` has an MIC [7] of 0.78 µM (≈ 0.365 µg/mL) and an MIC99 (A549) of over 10 µM.

With `CC1(C)OB(O)c2cc(NC(=O)c3ccc(F)cc3C(F)(F)F)ccc21` [ACOZIBOROLE] the Cmax [15] was over 10000 ng/mL and the AUC(0-t) at 24 h [16] was over 100000 ng·h/mL.

Work on `CCNC(=S)N1N=Cc2c(F)cccc2B1O` yielded a zone of inhibition at 100 µg/disc (Bacillus cereus) of 3.4 mm.

Work on `CC1=NN2B(OB3c4ccccc4C(C)=NN3C2=O)c2ccccc21` yielded an MIC (Escherichia coli [17]) of 32 µg/mL (≈ 97.6 µM).

Compound `COc1ccc2c(c1)C=NN(C(N)=S)B2O` has a zone of inhibition at 50 µg/disc (Aspergillus niger [18]) of 2.3 mm and a zone of inhibition at 50 µg/disc (Verticillium dahliae) of 6.4 mm.

Compound `Brc1cccc(B2NC(c3ccccc3)=NO2)c1` has an MIC (Aspergillus niger [1]) of 0.08 µM (≈ 0.0241 µg/mL).

Compound `NC[C@H]1OB(O)c2c(OCCO)ccc(Cl)c21` [GANFEBOROLE] has an ED99 [19] of 0.4 mg/kg, an AUC/dose [20] of 2.03 µg·h/mL and a half-life [21] of 3.6 h. For the same compound, the AUC [22] was 88200 ng·h/mL and the AUC/dose [23] was 2.94 µg·h/mL.

`CCCCB1NC(C)(C)CO1` gave an Activity (Streptococcus mutans [24]) of 40%.
